Results from patent publication US6946458B2, “N-thiolated beta-lactams: novel antibacterial agents for methicillin-resistant Staphylococcus aureus” (University of South Florida, priority 1999, dated 2005).

Columns and labels:
Assay in all cases: Kirby-Bauer agar disk diffusion
MRSA USF652 = format: cell-based, Staphylococcus aureus; details: Table 1; 6-mm disks, 20 μg test compound, 24 h, triplicate
Summary of the method: (§1)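 Agar disk diffusion against β-lactamase-producing MRSA clinical isolates, using 6-mm air-dried disks loaded with 20 μg test compound. Growth-inhibition zone diameter (mm) read after 24 h; values are means of triplicate experiments.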

MRSA USF653 = format: cell-based, Staphylococcus aureus; details: Table 1; 6-mm disks, 20 μg test compound, 24 h, triplicate
Summary of the method: as §1

MRSA USF654 = format: cell-based, Staphylococcus aureus; details: Table 1; 6-mm disks, 20 μg test compound, 24 h, triplicate
Summary of the method: as §1

MRSA USF655 = format: cell-based, Staphylococcus aureus; details: Table 1; 6-mm disks, 20 μg test compound, 24 h, triplicate
Summary of the method: as §1

MRSA USF656 = format: cell-based, Staphylococcus aureus; details: Table 1; 6-mm disks, 20 μg test compound, 24 h, triplicate
Summary of the method: as §1

MRSA USF657 = format: cell-based, Staphylococcus aureus; details: Table 1; 6-mm disks, 20 μg test compound, 24 h, triplicate
Summary of the method: as §1

MRSA USF658 = format: cell-based, Staphylococcus aureus; details: Table 1; 6-mm disks, 20 μg test compound, 24 h, triplicate
Summary of the method: as §1

MRSA USF659 = format: cell-based, Staphylococcus aureus; details: Table 1; 6-mm disks, 20 μg test compound, 24 h, triplicate
Summary of the method: as §1

Micrococcus luteus = format: cell-based; details: Table 1; 6-mm disks, 20 μg test compound, 24 h, triplicate
Summary of the method: (§2)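 Agar disk diffusion used 6-mm air-dried disks carrying 20 μg of compound. Values are mean diameters (mm) of the growth-inhibition zone at 24 h, from triplicate experiments. S. epidermidis and S. simulans were clinical isolates.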

[1] = tested on: Staphylococcus aureus (ATCC 25923); format: cell-based; details: Table 1; 6-mm disks, 20 μg test compound, 24 h, triplicate
Summary of the method: as §2

[2] = tested on: Staphylococcus epidermidis; format: cell-based; details: Table 1; 6-mm disks, 20 μg test compound, 24 h, triplicate
Summary of the method: as §2

S. simulans (ATCC 11631) = format: cell-based, Staphylococcus simulans; details: Table 1; 6-mm disks, 20 μg test compound, 24 h, triplicate
Summary of the method: as §2

[3] = tested on: S. saprophyticus (ATCC 3552); format: cell-based, Staphylococcus saprophyticus; details: Table 1; 6-mm disks, 20 μg test compound, 24 h, triplicate
Summary of the method: as §2

N. gonorrhoeae = format: cell-based, Neisseria gonorrhoeae; details: Table 1; 6-mm disks, 20 μg test compound, 24 h, triplicate; β-lactamase positive
Method: In this study, a selection of N-methylthio-substituted β-lactams are examined for antimicrobial activity by the Kirby-Bauer disk diffusion method on agar plates. A variety of common Gram-positive and Gram-negative bacteria are tested, including clinical isolates of methicillin-resistant Staphylococcus aureus (MRSA).
Compound susceptibility measurements are obtained from agar disk diffusion experiments using 6-mm air-dried disks impregnated with 20 μg of the test compound. The values correspond to the average diameters in mm (triplicate experiments) for the zone of growth inhibition observed after 24 h. Staphylococcus aureus (ATCC 25923) and β-lactamase-producing strains of methicillin-resistant Staphylococcus aureus (labeled as MRSA USF652-659) are obtained from Lakeland Regional Medical Center, Lakeland, Fla. Staphylococcus epidermidis, Staphylococcus simulans, Staphylococcus simulans, and Microcossus luteus are clinical isolates from University of South Florida Medical Clinic. Nieserria gonnorhoeae (β-lactamase positive) is obtained from the Tampa Branch State Laboratory. PenG is penicillin G (potassium salt). Table 1 provides the zones of growth inhibition that are observed after 24 hours using the lactams of FIGS. 1A-1I (designated A-I, respectively).

Compound	zone of growth inhibition, average diameter (MRSA USF652)	zone of growth inhibition, average diameter (MRSA USF653)	zone of growth inhibition, average diameter (MRSA USF654)	zone of growth inhibition, average diameter (MRSA USF655)	zone of growth inhibition, average diameter (MRSA USF656)	zone of growth inhibition, average diameter (MRSA USF657)	zone of growth inhibition, average diameter (MRSA USF658)	zone of growth inhibition, average diameter (MRSA USF659)	zone of growth inhibition, average diameter (Micrococcus luteus)	zone of growth inhibition, average diameter [1]	zone of growth inhibition, average diameter [2]	zone of growth inhibition, average diameter (S. simulans (ATCC 11631))	zone of growth inhibition, average diameter [3]	zone of growth inhibition, average diameter (N. gonorrhoeae)
COC1C(=O)N(SC)C1C=Cc1ccccc1 (racemic) [Lactam B]	19 mm	23 mm	16 mm	17 mm	19 mm	17 mm	16 mm	15 mm	20 mm	18 mm	23 mm	11 mm	12 mm	11 mm
COC1C(=O)N(SC)C1c1ccccc1 (racemic) [Lactam C]	30 mm	30 mm	26 mm	25 mm	28 mm	27 mm	26 mm	24 mm	21 mm	25 mm	31 mm	14 mm	22 mm	14 mm
COC(=O)c1ccc(C2C(OC)C(=O)N2SC)cc1 (racemic) [Lactam F]	12 mm	14 mm	12 mm	14 mm	11 mm	12 mm	12 mm	13 mm	20 mm	12 mm	12 mm	0 mm	8 mm	11 mm
